Values quoted from earlier work, collected in patent US20080269177A1, “PESTICIDAL COMPOSITIONS” (ECOSMART TECHNOLOGIES, INC., priority 2007, published 2008).

What was measured:
[1] = even treatments as low as 1.2%
[2] = even at the lowest doses, 30 mg/kg/day

SMILES: CCCCOCCOCCOCc1cc2c(cc1CCC)OCO2 [PBO, piperonyl butoxide]
- tumour finding in animal studies [1]: hepatocellular carcinomas
- liver weights in chronic toxicity studies [2]: increased liver weights
